Experimental data: publication PMC5962403 (SLAS discovery : advancing life sciences R & D, 2018)

Experiments:
[1] = test system: CBX7; conditions: cited from earlier work
[2] = biological target: T1, CBX7 ChD (Homo sapiens, UniProt O95931); format: binding; conditions: control ligands on 24 DNA constructs each, relative to nonligand
T1 sequence (O95931 11-69 limits assumed): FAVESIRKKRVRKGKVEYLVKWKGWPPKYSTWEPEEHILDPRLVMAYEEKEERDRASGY

enrichment in model selection against CBX7 (in words) [2] | Substance | selectivity to CBX7 over other CBX proteins and ChDs [1] | Kd ([1]; reported Kd for CBX7)
– | UNC3866 | 6- to 18 fold | 97 nM
moderately enriched | Ac-F-A-I-Kme3-S-140-mers [medium-affinity ligand] | – | –
poorly enriched | Bz-A-I-Kme3-S-140-mers [low-affinity ligand] | – | –
